Results published in US10669242B2 (priority 2016, dated 2020).

The compounds below were run against T1, recombinant glucosyltransferase domain of C. difficile Toxin B/TcdB (Clostridioides difficile, UniProt P18177) (assay: biochemical).
T1 construct: 6-His (C); purchased R&D Systems 6246-GT
T1 sequence (P18177 1-543): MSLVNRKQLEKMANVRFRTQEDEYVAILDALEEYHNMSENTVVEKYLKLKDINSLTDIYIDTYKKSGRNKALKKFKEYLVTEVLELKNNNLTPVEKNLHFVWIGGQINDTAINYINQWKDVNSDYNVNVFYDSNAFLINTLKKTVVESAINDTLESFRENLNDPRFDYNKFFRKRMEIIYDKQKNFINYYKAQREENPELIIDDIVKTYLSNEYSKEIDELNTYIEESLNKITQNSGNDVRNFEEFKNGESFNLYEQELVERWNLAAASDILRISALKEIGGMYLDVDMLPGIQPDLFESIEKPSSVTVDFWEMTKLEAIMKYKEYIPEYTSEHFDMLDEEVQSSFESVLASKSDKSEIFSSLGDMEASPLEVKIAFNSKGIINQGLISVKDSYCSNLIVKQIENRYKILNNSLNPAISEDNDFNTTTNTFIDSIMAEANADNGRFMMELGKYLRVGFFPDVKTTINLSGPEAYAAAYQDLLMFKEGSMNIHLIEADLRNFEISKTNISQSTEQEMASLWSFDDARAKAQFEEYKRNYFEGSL
`O=C1Nc2cc(Cl)ccc2C(=O)N(Cc2ccc(C(=NO)c3ccccn3)cc2)[C@@H]1Cc1ccccn1` (mixture of isomers) [Example 52a, (R)-8-Chloro-4-(4-((hydroxyimino)(pyridin-2-yl)methyl)benzyl)-3-(pyridin-2-ylmethyl)-3,4-dihydro-1H-benzo[e][1,4]diazepine-2,5-dione] gave an IC50 of 100 to 999 nM. `O=C(O)c1ccc(CN2C(=O)c3ccc(Cl)cc3NC(=O)[C@H]2Cc2ccccn2)cc1` [Example 1a, (R)-4-((8-Chloro-2,5-dioxo-3-(pyridin-2-ylmethyl)-2,3-dihydro-1H-benzo[e][1,4]diazepin-4(5H)-yl)methyl)benzoic Acid] gave an IC50 of 100 to 999 nM. `O=C(O)c1ccc(CN2C(=O)c3ccc(F)cc3NC(=O)[C@H]2Cc2cccnc2)cc1` [Example 1b] showed an IC50 of 1000 to 10000 nM. Work on `O=C(O)c1ccc(CN2C(=O)c3ccc(Cl)cc3NC(=O)[C@H]2Cc2ccncc2)cc1` [Example 1c] yielded an IC50 of 10000 to 35000 nM. `O=C(O)c1ccc(CN2C(=O)c3ccc(Cl)cc3NC(=O)[C@H]2Cc2ccc(Cl)c(Cl)c2)cc1` [Example 1d] was tested, and the IC50 was 1000 to 10000 nM. With `Cc1ccc2c(c1)NC(=O)[C@@H](Cc1ccc(Cl)c(Cl)c1)N(Cc1ccc(C(=O)O)cc1)C2=O` [Example 1e] the IC50 was 10000 to 35000 nM. `O=C(O)c1ccc(CN2C(=O)c3ccc(Cl)cc3NC(=O)[C@@H]2Cc2ccccn2)cc1` [Example 1f] was tested, and the IC50 was 100 to 999 nM. `O=C(O)c1ccc(CN2C(=O)c3ccc(Br)cc3NC(=O)[C@H]2Cc2cccnc2)cc1` [Example 1g] gave an IC50 of 1000 to 10000 nM. `O=C(O)c1ccc(CN2C(=O)c3ccc(Cl)cc3NC(=O)[C@H]2Cc2ccccn2)s1` [Example 1h] gave an IC50 of 100 to 999 nM. `O=C(O)c1ccc(CN2C(=O)c3ccc(Cl)cc3NC(=O)[C@H]2Cc2ccccn2)cc1F` [Example 1i] was tested, and the IC50 was 100 to 999 nM. With `O=C1Nc2cc(Cl)ccc2C(=O)N(C[C@H]2CC[C@H](C(=O)O)CC2)[C@@H]1Cc1ccccn1` [Example 1j] the IC50 was 10000 to 35000 nM. `O=C(O)c1ccc(CN2C(=O)c3ccc(Cl)cc3NC(=O)[C@H]2Cc2cccs2)cc1` [Example 1k] was tested, and the IC50 was 10000 to 35000 nM. `O=C(O)c1ccc(CN2C(=O)c3ccc(Cl)cc3NC(=O)C2Cc2cnccn2)cc1` (centres unmarked) [Example 1l] showed an IC50 of 1000 to 10000 nM. `O=C(O)c1ccc(CN2C(=O)c3ccc(Cl)cc3NC(=O)[C@H]2Cc2cscn2)cc1` [Example 1m] was tested, and the IC50 was 1000 to 10000 nM. Compound `C[C@@H]1C(=O)Nc2cc(Cl)ccc2C(=O)N1Cc1ccc(C(=O)O)c(Br)c1` [Example 1n] has an IC50 of 10000 to 35000 nM. `O=C(O)c1ccc(CN2C(=O)c3ccc(Cl)cc3NC(=O)[C@H]2Cc2cccnc2)cc1` [Example 2a, (R)-4-((8-Chloro-2,5-dioxo-3-(pyridin-3-ylmethyl)-2,3-dihydro-1H-benzo[e][1,4]diazepin-4(5H)-yl)methyl)benzoic Acid] was tested, and the IC50 was 100 to 999 nM. `O=C(O)c1ccc(CN2C(=O)c3ccc(Cl)cc3NC(=O)[C@@H]2Cc2ccc(O)cc2)cc1` [Example 2c] showed an IC50 of 10000 to 35000 nM. `O=C(O)c1ccc(CN2C(=O)c3ccc(Cl)cc3NC(=O)[C@H]2Cc2ccc(O)cc2)cc1` [Example 2d] was tested, and the IC50 was 1000 to 10000 nM. Work on `COc1ccc2c(c1)NC(=O)[C@@H](Cc1cccnc1)N(Cc1ccc(C(=O)O)cc1)C2=O` [Example 2e] yielded an IC50 of 1000 to 10000 nM. `COc1ccc2c(c1)NC(=O)[C@@H](Cc1ccc(Cl)c(Cl)c1)N(Cc1ccc(C(=O)O)cc1)C2=O` [Example 2f] gave an IC50 of 1000 to 10000 nM. `O=C(O)c1ccc(CN2C(=O)c3ccc(F)cc3NC(=O)[C@H]2Cc2ccc(Cl)c(Cl)c2)cc1` [Example 2g] showed an IC50 of 1000 to 10000 nM. Compound `O=C(O)c1ccc(CN2C(=O)c3ccc([N+](=O)[O-])cc3NC(=O)[C@H]2Cc2ccc(Cl)c(Cl)c2)cc1` [Example 2h] has an IC50 of 1000 to 10000 nM. Work on `O=C(O)c1ccc(CN2C(=O)c3ccc([N+](=O)[O-])cc3NC(=O)[C@H]2Cc2cccnc2)cc1` [Example 2i] yielded an IC50 of 1000 to 10000 nM. For `O=C(O)c1ccc(CN2C(=O)c3ccc(Cl)cc3NC(=O)[C@H]2Cc2ccccc2)cc1` [Example 3a, (R)-4-((3-Benzyl-8-chloro-2,5-dioxo-2,3-dihydro-1H-benzo[e][1,4]diazepin-4(5H)-yl)methyl)benzoic Acid], the IC50 was 1000 to 10000 nM. With `C[C@H]1C(=O)Nc2cc(Cl)ccc2C(=O)N1Cc1ccc(C(=O)O)cc1` [Example 3b] the IC50 was 10000 to 35000 nM. `O=C(O)c1ccc(CN2C(=O)c3ccc(Cl)cc3NC(=O)[C@H]2CCc2ccccc2)cc1` [Example 3c] showed an IC50 of 10000 to 35000 nM. `O=C(O)c1ccc(CN2C(=O)c3ccc(Cl)cc3NC(=O)[C@H]2Cc2ccc(F)cc2)cc1` [Example 3d] gave an IC50 of 1000 to 10000 nM. With `O=C(O)c1ccc(CN2C(=O)c3ccc(Cl)cc3NC(=O)[C@H]2Cc2ccc(Cl)cc2)cc1` [Example 3e] the IC50 was 10000 to 35000 nM. With `O=C(O)c1ccc(CN2C(=O)c3ccc(Cl)cc3NC(=O)[C@H]2Cc2cccc(Cl)c2)cc1` [Example 3f] the IC50 was 1000 to 10000 nM. Work on `C[C@@H]1C(=O)Nc2cc(Cl)ccc2C(=O)N1Cc1ccc(C(=O)O)cc1` [Example 3g] yielded an IC50 of 10000 to 35000 nM. For `Cc1ccc(C[C@@H]2C(=O)Nc3cc(Cl)ccc3C(=O)N2Cc2ccc(C(=O)O)cc2)cc1` [Example 3h], the IC50 was 10000 to 35000 nM. For `O=C(O)c1ccc(CN2C(=O)c3ccc(Cl)cc3NC(=O)[C@H]2Cc2ccccc2Cl)cc1` [Example 3i], the IC50 was 1000 to 10000 nM. With `O=C(O)c1ccc(CN2C(=O)c3ccc(Cl)cc3NC(=O)[C@H]2Cc2ccccc2F)cc1` [Example 3j] the IC50 was 10000 to 35000 nM. Work on `CC(C)[C@@H]1C(=O)Nc2cc(Cl)ccc2C(=O)N1Cc1ccc(C(=O)O)cc1` [Example 3k] yielded an IC50 of 100 to 999 nM. `Cc1ccccc1C[C@@H]1C(=O)Nc2cc(Cl)ccc2C(=O)N1Cc1ccc(C(=O)O)cc1` [Example 3l] gave an IC50 of 1000 to 10000 nM. `Cc1cccc(C[C@@H]2C(=O)Nc3cc(Cl)ccc3C(=O)N2Cc2ccc(C(=O)O)cc2)c1` [Example 3m] gave an IC50 of 1000 to 10000 nM. Work on `N#Cc1cccc(C[C@@H]2C(=O)Nc3cc(Cl)ccc3C(=O)N2Cc2ccc(C(=O)O)cc2)c1` [Example 3n] yielded an IC50 of 1000 to 10000 nM. `O=C1CN(Cc2ccc(C(=O)O)cc2)C(=O)c2ccc(Cl)cc2N1` [Example 3o] showed an IC50 of 10000 to 35000 nM. For `O=C(Nc1ccccn1)c1ccc(CN2C(=O)c3ccc(Cl)cc3NC(=O)[C@H]2Cc2cccc(Cl)c2)cc1` [Example 4aa, (R)-4-((8-chloro-3-(3-chlorobenzyl)-2,5-dioxo-2,3-dihydro-1H-benzo[e][1,4]diazepin-4(5H)-yl)methyl)-N-(pyridin-2-yl)benzamide], the IC50 was under 100 nM. `O=C1Nc2cc(Cl)ccc2C(=O)N(Cc2ccc(C(=O)n3ccc4cccnc43)c(Cl)c2)[C@@H]1Cc1ccccn1` [Example 4ab, (R)-8-chloro-4-(3-chloro-4-(1H-pyrrolo[2,3-b]pyridine-1-carbonyl)benzyl)-3-(pyridin-2-ylmethyl)-3,4-dihydro-1H-benzo[e][1,4]diazepine-2,5-dione] gave an IC50 of under 100 nM. For `Cc1ccc2c(c1)NC(=O)[C@@H](Cc1ccc(Cl)c(Cl)c1)N(Cc1ccc(C(=O)Nc3ccccn3)cc1)C2=O` [Example 4ac, (R)-4-((3-(3,4-dichlorobenzyl)-8-methyl-2,5-dioxo-2,3-dihydro-1H-benzo[e][1,4]diazepin-4(5H)-yl)methyl)-N-(pyridin-2-yl)benzamide], the IC50 was 100 to 999 nM. `O=C(Nc1ccccn1)c1ccc(CN2C(=O)c3ccc([N+](=O)[O-])cc3NC(=O)[C@H]2Cc2ccc(Cl)c(Cl)c2)cc1` [Example 4ae, (R)-4-((3-(3,4-dichlorobenzyl)-8-nitro-2,5-dioxo-2,3-dihydro-1H-benzo[e][1,4]diazepin-4(5H)-yl)methyl)-N-(pyridin-2-yl)benzamide] gave an IC50 of 100 to 999 nM. In the case of `Cc1cnc2c(c1)CCN2C(=O)c1ccc(CN2C(=O)c3ccc(Cl)cc3NC(=O)[C@H]2Cc2ccccn2)cc1` [Example 4af, (R)-8-chloro-4-(4-(5-methyl-2,3-dihydro-1H-pyrrolo[2,3-b]pyridine-1-carbonyl)benzyl)-3-(pyridin-2-ylmethyl)-3,4-dihydro-1H-benzo[e][1,4]diazepine-2,5-dione], the IC50 is reported as under 100 nM. `O=C1Nc2cc(Cl)ccc2C(=O)N(Cc2ccc(C(=O)N3CCCc4cccnc43)cc2)[C@@H]1Cc1ccccn1` [Example 4ag, (R)-8-chloro-3-(pyridin-2-ylmethyl)-4-(4-(1,2,3,4-tetrahydro-1,8-naphthyridine-1-carbonyl)benzyl)-3,4-dihydro-1H-benzo[e][1,4]diazepine-2,5-dione] was tested, and the IC50 was 1000 to 10000 nM. Compound `O=C1Nc2cc(Cl)ccc2C(=O)N(Cc2ccc(C(=O)N3CCc4cccnc43)cc2)[C@@H]1Cc1ccccn1` [Example 4ah, (R)-8-chloro-4-(4-(2,3-dihydro-1H-pyrrolo[2,3-b]pyridine-1-carbonyl)benzyl)-3-(pyridin-2-ylmethyl)-3,4-dihydro-1H-benzo[e][1,4]diazepine-2,5-dione] has an IC50 of under 100 nM. With `Cc1ccccc1C[C@@H]1C(=O)Nc2cc(Cl)ccc2C(=O)N1Cc1ccc(C(=O)Nc2ccccn2)cc1` [Example 4ai, (R)-4-((8-chloro-3-(2-methylbenzyl)-2,5-dioxo-2,3-dihydro-1H-benzo[e][1,4]diazepin-4(5H)-yl)methyl)-N-(pyridin-2-yl)benzamide] the IC50 was under 100 nM. In the case of `Cc1cccc(C[C@@H]2C(=O)Nc3cc(Cl)ccc3C(=O)N2Cc2ccc(C(=O)Nc3ccccn3)cc2)c1` [Example 4aj, (R)-4-((8-chloro-3-(3-methylbenzyl)-2,5-dioxo-2,3-dihydro-1H-benzo[e][1,4]diazepin-4(5H)-yl)methyl)-N-(pyridin-2-yl)benzamide], the IC50 is reported as 100 to 999 nM. `N#Cc1cccc(C[C@@H]2C(=O)Nc3cc(Cl)ccc3C(=O)N2Cc2ccc(C(=O)Nc3ccccn3)cc2)c1` [Example 4ak, (R)-4-((8-chloro-3-(3-cyanobenzyl)-2,5-dioxo-2,3-dihydro-1H-benzo[e][1,4]diazepin-4(5H)-yl)methyl)-N-(pyridin-2-yl)benzamide] showed an IC50 of under 100 nM. `Cc1ccc(NC(=O)c2ccc(CN3C(=O)c4ccc(Cl)cc4NC(=O)[C@H]3Cc3cscn3)cc2)nc1` [Example 4al, (R)-4-((8-chloro-2,5-dioxo-3-(thiazol-4-ylmethyl)-2,3-dihydro-1H-benzo[e][1,4]diazepin-4(5H)-yl)methyl)-N-(5-methylpyridin-2-yl)benzamide] gave an IC50 of under 100 nM. `O=C1CN(Cc2ccc(C(=O)Nc3ccccn3)cc2)C(=O)c2ccc(Cl)cc2N1` [Example 4am, 4-((8-chloro-2,5-dioxo-2,3-dihydro-1H-benzo[e][1,4]diazepin-4(5H)-yl)methyl)-N-(pyridin-2-yl)benzamide] showed an IC50 of 100 to 999 nM.
